One data set concerns GIANT FOXTAIL. Put plainly: Effect of DTPA, EDTA and other adjuvants on glyphosate efficacy on giant foxtail (% control). In kind it is in vivo. Conditions: combined experiments 1 and 2, 10 gpa, 25 psi.
For another data set, the system named is TOMATO. Conditions: for % INJURY 7 DAT: rated 7 DAT; for % INJURY 10 DAT: rated 10 DAT; for % INJURY 14 DAT: rated 14 DAT; for % INJURY 21 DAT: rated 21 DAT; for % INJURY 28 DAT: rated 28 DAT. The text has this:
Reduction in herbicide volatility can be characterized using the procedure generally set forth in Penner U.S. Publication No. 2016/0255832, which includes a bioassay system for evaluating herbicide volatilization from plant substrates (e.g., using wheat and soybean plants or equivalent in a plant growth chamber with a selected adjuvant/herbicide composition including a volatile growth regulator herbicide and an aminopolycarboxylate salt). A wide range of soil, plant, environmental, and herbicide factors (e.g., vapor pressure and water solubility of herbicide, surface characteristics) can affect herbicide volatility from soils and plants. Comparison of the volatilization would be most readily visualized by appropriate bioassay systems. In the bioassay system, a herbicide composition including a volatile growth regulator herbicide (e.g., 2,4-D, dicamba, or otherwise) and optionally one or more adjuvants (e.g., including an aminopolycarboxylate salt or not) is applied foliarly to a target plant generally resistant to the herbicide (e.g., wheat plants, such as amber red wheat) or is applied to a target soil area without a target plant. Twenty minutes later, soybean plants (e.g., PIONEER 92M92 soybean plants) or other plants sensitive to the volatile growth regulator herbicide are placed in the middle of the sprayed target plants and/or soil.
The following examples illustrate the disclosed compositions and methods, but are not intended to limit the scope of any claims thereto. […] In the examples of Tables 1-3, target weeds were initially treated with glyphosate and any additional adjuvants as indicated in the tables. […] In the examples of Table 4, target soil was initially treated with dicamba and any additional adjuvants as indicated in the table, and then tomato plants were inserted into a ring of the treated soil for 24 hours. After 24 hours of sitting in the treated soil (i.e., during which time any volatilized herbicide from the soil could contact the tomato plants), the tomato plants were removed from the treated soil and grown on a laboratory bench.

For another data set, the system named is VELVETLEAF
Nature of the data set: Effect of DTPA on glyphosate efficacy on velvetleaf (% control). In kind it is in vivo. To be noted: Table 3, combined experiments 1, 2 and 3, 10 gpa, 25 psi, glyphosate 0.25 lb a.e./A.

Data set [1] is described as follows: pH of the treatment solutions (Table 3). In kind it is physicochemical. Conditions: pH of treatment solution, DTPA treatments adjusted with KOH (5N).
For data set [2] the following is noted: approximate values given by way of illustration; cited from earlier work.
[3] abbreviates: Table 2, glyphosate 0.275 (exp 1) / 0.20 (exp 2) lb a.e./A.
Setting [4] is: Table 2, glyphosate 0.275 / 0.20 lb a.e./A.
The mark [5] stands for this setting: tomato in treated soil ring: duration, dicamba 0.50 lb a.e./A.
The mark [6] stands for this setting: tomato inserted 1 DAT (in 1st DAT out 2nd DAT), 24 hours.
Setting [7] is: tomato inserted 2 DAT (in 2nd DAT out 3rd DAT), 24 hours.
Where [8] appears, read: tomato inserted 3 DAT (in 3rd DAT out 4th DAT), 24 hours.
The mark [9] stands for this setting: tomato inserted 4 DAT (in 4th DAT out 5th DAT), 24 hours.
Where [10] appears, read: tomato inserted 7 DAT (in 7th DAT out 8th DAT), 24 hours.
Where [11] appears, read: Table 1, glyphosate 0.20 (Run 1) / 0.25 (Run 2) lb a.e./A, pH adjusted to 5.5 with KOH.
The mark [12] stands for this setting: Table 1, glyphosate 0.20 / 0.25 lb a.e./A.

Consider ten molecules from patent US10842149B2, “Water conditioning adjuvant compositions and related methods for reducing herbicide volatility” (BOARD OF TRUSTEES OF MICHIGAN STATE UNIVERSITY, priority 2017, dated 2020).

Where two headings read alike, the source gives them in different places.

On to `O=C(O)CN(CCN(CC(=O)O)CC(=O)O)CCN(CC(=O)O)CC(=O)O` [2.0% w/v DTPA, Diethylenetriaminepentaacetic acid], for which the “% CONTROL 7 DAT” value in the data set on GIANT FOXTAIL (setting [3]) was 0%. Further, in the data set with GIANT FOXTAIL (setting [4]), the “% CONTROL 10 DAT” value stood at 3%, the “% CONTROL 14 DAT” value is on record as 0% and the “% CONTROL 21 DAT” value came out at 3%.
In the case of `O=C(O)CN(CCN(CC(=O)O)CC(=O)O)CC(=O)O` [2 0% w/v EDTA, Ethylenediaminetetraacetic acid], the “% CONTROL 7 DAT” value in the data set with GIANT FOXTAIL (setting [3]) is listed as 0%. In addition, in the data set on GIANT FOXTAIL (setting [4]), the “% CONTROL 10 DAT” value amounted to 0%, the “% CONTROL 14 DAT” value stood at 0% and the “% CONTROL 21 DAT” value came out at 0%.
On to `COc1c(Cl)ccc(Cl)c1C(=O)O` [DICAMBA DGA, 3,6-dichloro-2-methoxybenzoic acid], for which the “% INJURY 7 DAT” value with TOMATO (tomato in treated soil ring: duration, dicamba 0.50 lb a.e./A on bare field soil kept wet, 20 gpa, 25 psi) is 25%; in the data set with TOMATO (tomato inserted 1 DAT (in 1st DAT out 2nd DAT), 24 hours, dicamba 0.50 lb a.e./A) it was 33%; in the data set with TOMATO (setting [7]), 13%; in the data set on TOMATO (setting [8]), 20%; with TOMATO (setting [9]) it was 25%; with TOMATO (setting [10]) it was 17%. Besides, the “% INJURY 10 DAT” value in the data set on TOMATO (setting [5]) turned out to be 27%; in the data set on TOMATO (setting [6]) it was 37%; in the data set with TOMATO (setting [7]) it was 23%; with TOMATO (setting [8]) it was 22%; in the data set on TOMATO (setting [9]) it was 27%; in the data set on TOMATO (setting [10]), 18%. Also, the “% INJURY 14 DAT” value with TOMATO (setting [5]) came to 30%; in the data set with TOMATO (setting [6]), 35%; in the data set on TOMATO (setting [7]), 20%; in the data set with TOMATO (setting [8]), 2%; in the data set on TOMATO (setting [9]) it was 15%; with TOMATO (setting [10]), 20%. Further, the “% INJURY 21 DAT” value in the data set on TOMATO (setting [5]) was determined as 27%; in the data set on TOMATO (setting [6]), 32%; in the data set with TOMATO (setting [7]) it was 15%; with TOMATO (setting [8]) it was 8%; in the data set on TOMATO (setting [9]), 25%; with TOMATO (setting [10]) it was 17%. Further, the “% INJURY 28 DAT” value was found to be 27% with TOMATO (setting [5]); 25% with TOMATO (setting [6]); 18% with TOMATO (setting [7]); 7% in the data set on TOMATO (setting [8]); 22% in the data set on TOMATO (setting [9]); 7% with TOMATO (setting [10]).
With `O=C(O)CNCP(=O)(O)O` [GLYPHOSATE, N-(phosphonomethyl)glycine], the “% CONTROL 7 DAT” value with GIANT FOXTAIL (setting [11]) is recorded as 39%; in the data set with GIANT FOXTAIL (setting [3]), 49%; in the data set with VELVETLEAF, 12%. For the same molecule, the “% CONTROL 10 DAT” value with GIANT FOXTAIL (setting [12]) was 37%; with GIANT FOXTAIL (setting [4]) it was 48%; in the data set on VELVETLEAF, 12%. The “% CONTROL 14 DAT” value stood at 40% in the data set with GIANT FOXTAIL (setting [12]), 48% in the data set on GIANT FOXTAIL (setting [4]) and 10% with VELVETLEAF. For the same molecule, the “% CONTROL 21 DAT” value is 34% with GIANT FOXTAIL (setting [12]), 45% with GIANT FOXTAIL (setting [4]) and 6% in the data set with VELVETLEAF. In data set [1], the pH is given as 4.7.
Consider `CC(C)OC(=O)COc1ccc(Cl)cc1Cl` [2,4-D isopropyl ester], for which, in data set [2], the vapor pressure is listed as ~1.9×10^1 Pa.
With `CNC.O=C(O)COc1ccc(Cl)cc1Cl` [2,4-D dimethylamine salt], the vapor pressure in data set [2] is reported as ~1.3×10^−5 Pa.
Take `CCCCOCCOC(=O)COc1ccc(Cl)cc1Cl` [2,4-D butoxyethyl ester]: the vapor pressure in data set [2] is given as ~3.2×10^−4 Pa.
Consider `O=C(O)CN(CCN(CC(=O)O)CC(=O)O)CCN(CC(=O)O)CC(=O)O` [1.0% w/v DTPA, Diethylenetriaminepentaacetic acid], for which the “% CONTROL 7 DAT” value in the data set on GIANT FOXTAIL (setting [11]) is listed as 1%; in the data set with GIANT FOXTAIL (setting [3]) it was 0%; in the data set on VELVETLEAF, 0%. Also, the “% CONTROL 10 DAT” value in the data set with GIANT FOXTAIL (setting [12]) stood at 5%; in the data set with GIANT FOXTAIL (setting [4]), 0%; in the data set on VELVETLEAF, 0%. In addition, the “% CONTROL 14 DAT” value in the data set with GIANT FOXTAIL (setting [12]) is recorded as 6%; in the data set with GIANT FOXTAIL (setting [4]), 0%; with VELVETLEAF, 5%. Also, the “% CONTROL 21 DAT” value was determined as 1% with GIANT FOXTAIL (setting [12]), 3% in the data set with GIANT FOXTAIL (setting [4]) and 0% with VELVETLEAF.
Consider `O=C(O)CN(CCN(CC(=O)O)CC(=O)O)CC(=O)O` [1.0% w/v EDTA, Ethylenediaminetetraacetic acid], for which, in the data set on GIANT FOXTAIL (setting [3]), the “% CONTROL 7 DAT” value was 0%. For the same molecule, in the data set on GIANT FOXTAIL (setting [4]), the “% CONTROL 10 DAT” value was found to be 0%, the “% CONTROL 14 DAT” value is reported as 0% and the “% CONTROL 21 DAT” value is reported as 3%.
For `CCCCC(CC)COC(=O)COc1ccc(Cl)cc1Cl` (centres unmarked) [2,4-D 2-ethylhexyl ester], the vapor pressure in data set [2] was ~4.8×10^−4 Pa.
